Test results published in patent publication US7799748B2, “Method of selecting benefit agents/oils suitable for reducing surfactant damage” (Conopco, Inc., priority 2005, dated 2010).

Key:
[1] = biological target: BSA (Bovine Serum Albumin) (Bos taurus, UniProt P02769); test: Conductivity test: surfactant binding to BSA protein; settings: 10% SDS with 10% oil (1:1) or 10% SDS alone; 0.5% BSA in 0.02M acetate buffer pH~5.2, room temperature
Procedure: Conductance measurements were carried out at room temperature by use of a Thermo conductivity meter, model Orion 150+. Routinely, the titrations were performed by adding a controlled amount of 10% of stock surfactant solution under magnetic stirring into the 0.5% BSA (Bovine Serum Albumin) in 0.02M acetate buffer at pH˜5.2. Values of CMC (critical micellization concentration), CAC (critical aggregation concentration) and protein saturation point (PSP) were defined by the changing of the slope of the conductivity vs. surfactant concentration plots. The number of surfactants binding to each protein can be calculated by: {[PSP]−[CAC]}/{[protein]/Mwprotein}, where [protein] is the protein concentration.
In order to show the effect of benefit agent having different polarity on binding to protein molecule (a reflection of the harshness of surfactant; more surfactant binding to protein equal harsher and more damage expected), applicants tested surfactant binding of (1) surfactant alone and (2) of surfactant in combination with various oils/cosolvents (at 1:1 surfactant to oil ratio) to see level of (how many) surfactants binding per protein molecule (e.g., BSA) at saturation. The tests were done using conductivity test described in protocol and results are set forth below in Table 1.
Applicants conducted same test as in Examples 1 to 10, but used SLES/CAPB surfactant system instead of SDS.

BSA protein = BSA protein (Bos taurus, UniProt P02769); test: Micro-DSC for protein denaturation; set-up: species or system Bovine; settings: denaturation enthalpy approaching zero, FIG. 5
Procedure: 1.2% of BSA acetate buffer solution was prepared (pH 5.2, IS 0.02). […] Then the BSA acetate solution was titrated with either oil, or surfactant, or oil/surfactant at 1:1 ratio. After each titration, a DSC measurement was performed.

Chain of BSA protein (P02769 25-607): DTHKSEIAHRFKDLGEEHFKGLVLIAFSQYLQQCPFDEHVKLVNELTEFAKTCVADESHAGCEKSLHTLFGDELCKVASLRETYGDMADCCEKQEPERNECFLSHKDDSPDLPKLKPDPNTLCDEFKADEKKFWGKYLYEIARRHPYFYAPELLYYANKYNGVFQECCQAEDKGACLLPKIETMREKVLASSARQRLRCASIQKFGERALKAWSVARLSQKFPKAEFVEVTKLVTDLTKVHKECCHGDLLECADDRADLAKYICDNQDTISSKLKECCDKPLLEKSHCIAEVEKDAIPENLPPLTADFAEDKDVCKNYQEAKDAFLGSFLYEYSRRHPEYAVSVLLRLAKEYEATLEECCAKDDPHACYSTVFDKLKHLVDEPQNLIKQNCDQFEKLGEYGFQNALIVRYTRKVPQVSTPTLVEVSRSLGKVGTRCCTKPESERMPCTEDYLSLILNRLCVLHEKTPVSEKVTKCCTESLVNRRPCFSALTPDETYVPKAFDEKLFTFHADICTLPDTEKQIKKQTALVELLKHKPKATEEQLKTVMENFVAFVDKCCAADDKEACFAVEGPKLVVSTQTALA
Chain of BSA (Bovine Serum Albumin) (P02769 25-607): as above

## CCCCCCCCCCCCOS(=O)(=O)[O-].[Na+] [10% SDS (surfactant alone), Sodium dodecyl sulfate]
[1]
  Saturated binding: No. of surfactant per BSA at saturation: 220
BSA protein
  ratio surfactant to protein at which BSA protein is fully denatured at room temperature: about 1.2
